Columns and labels:
E. coli K-12 bacteria = test: Effect of antibiotic on bacterial growth, monitored by nonlinear rotation of magnetic particles; type: cell-based; conditions: 5% w/v Ampicillin antibiotic solution; cluster of 40 μm magnetic particles attached to small colony; Luria Broth (Miller) Growth Media; FIG. 9 bottom curve
Source text: The top curve is for several particles attached to a small colony of E. coli K-12 bacteria in Luria Broth (Miller) Growth Media. The rotational period increases over time, indicating bacterial grow. […] In certain configurations, especially when particles are at an interface, such as an air-liquid interface, the nonlinear rotation may occur in a plane perpendicular to the plane of the external driving magnetic field. This type of nonlinear rotation occurred in the above exemplary measurement.

E. coli = test: Growth of bacteria attached to a magnetic microsphere, monitored by nonlinear rotation period; type: cell-based; conditions: bacteria exposed to isopropyl alcohol (70%) for 15 minutes; control, FIG. 4d circles; growth media alone gave 75% increase over 25 min
Source text: Rotation rates were observed under fluorescent, reflection, and bright-field microscopy. FIG. 4(a) was obtained by measuring the average rotation rate of a magnetic microsphere (with an attached E. coli) for increasing magnetic driving frequencies. The critical frequency, where the magnetic particle goes from synchronous with driving field to asynchronous (nonlinear), occurs abruptly at 1.27 Hz. Measurements for (b), (c), and (d) were then made in this nonlinear regime. Bacteria attached to magnetic microspheres were optically detected by fluorescence of DsRed fluorescent protein transformed bacteria.
The magnetic microspheres with one bacterium attached rotated 33.8 times slower than the blank microspheres. […] There was an incremental 75% increase in rotation period over 25 min.

For `CC1(C)S[C@@H]2[C@H](NC(=O)[C@H](N)c3ccccc3)C(=O)N2[C@H]1C(=O)O` [Ampicillin], the “normalized rotational period over time (indicator of bacterial growth)” value (E. coli K-12 bacteria) was “decreases or stays constant over time”.
In the case of `CC(C)O` [isopropyl alcohol], the “change in normalized rotation period (growth of attached bacteria)” value (E. coli) is reported as “an increase just within the limits of the error bars”.

From US9068977B2, “Non-linear rotation rates of remotely driven particles and uses thereof” (THE REGENTS OF THE UNIVERSITY OF MICHIGAN, priority 2007, dated 2015)
